Results reported in PubChem BioAssay AID256 (DTP/NCI, 2004).
Values joined by “and” are separate entries in the source; they are usually repeats but may differ in a detail not shown here. Equal entries are not always repeated. Inconclusive results and toxic doses are left out. Rule for the calls: active = survival T/C of 150% or more; inactive = T/C below 125% in these data.

Test system: CD2F1 mice, L1210 leukemia ip, survival T/C
Assay: NCI In Vivo Anticancer Drug Screen. Data for tumor model L1210 Leukemia (intraperitoneal) in CD2F1 (CDF1) mice
Conditions: higher = longer survival
Outline: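 Mice carrying a transplanted tumor received test compound or vehicle alone. The value is the measurement in the treated group divided by that in the vehicle-treated control group.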

[1] = endpoint: mean survival time, dose: 100.0 mg/kg/injection, schedule: Q04DX002 (ip), vehicle: saline with Tween-80
[2] = endpoint: mean survival time, dose: 12.5 mg/kg/injection, schedule: Q04DX003 (ip), vehicle: saline
[3] = endpoint: mean survival time, dose: 25.0 mg/kg/injection, schedule: Q04DX003 (ip), vehicle: saline
[4] = endpoint: mean survival time, dose: 100.0 mg/kg/injection, schedule: Q01DX009 (ip), vehicle: saline with Tween-80
[5] = endpoint: mean survival time, dose: 200.0 mg/kg/injection, schedule: Q01DX009 (ip), vehicle: saline with Tween-80
[6] = endpoint: mean survival time, dose: 400.0 mg/kg/injection, schedule: Q01DX009 (ip), vehicle: saline with Tween-80
[7] = endpoint: mean survival time, dose: 100.0 mg/kg/injection, schedule: Q01DX001 (ip), vehicle: saline with Tween-80
[8] = endpoint: mean survival time, dose: 200.0 mg/kg/injection, schedule: Q01DX001 (ip), vehicle: saline with Tween-80
[9] = endpoint: mean survival time, dose: 400.0 mg/kg/injection, schedule: Q01DX001 (ip), vehicle: saline with Tween-80
[10] = endpoint: mean survival time, dose: 100.0 mg/kg/injection, schedule: Q04DX003 (ip), vehicle: saline with Tween-80
[11] = endpoint: mean survival time, dose: 200.0 mg/kg/injection, schedule: Q04DX003 (ip), vehicle: saline with Tween-80
[12] = endpoint: mean survival time, dose: 400.0 mg/kg/injection, schedule: Q04DX003 (ip), vehicle: saline with Tween-80

Measured: T/C

O=C1C2=C(C(=O)C3=C1C1CCC3C1)C1CCC2C1
inactive: endpoint: mean survival time, dose: 25.0 mg/kg/injection, schedule: Q04DX002 (ip), vehicle: saline with Tween-80 105 % of control | endpoint: mean survival time, dose: 50.0 mg/kg/injection, schedule: Q04DX002 (ip), vehicle: saline with Tween-80 101 % of control | [1] 108 % of control

CC[N+]1(C)C2CCC1CC(O)C2 (stereo not drawn)
inactive: endpoint: mean survival time, dose: 100.0 mg/kg/injection, schedule: Q04DX002 (ip), vehicle: saline 105 % of control | endpoint: mean survival time, dose: 200.0 mg/kg/injection, schedule: Q04DX002 (ip), vehicle: saline 102 % of control

S=C=NCc1cccc(CN=C=S)c1
inactive: endpoint: mean survival time, dose: 1.5 mg/kg/injection, schedule: Q01DX009 (ip), vehicle: saline with Tween-80 98 % of control | endpoint: mean survival time, dose: 3.0 mg/kg/injection, schedule: Q01DX009 (ip), vehicle: saline with Tween-80 101 % of control | endpoint: mean survival time, dose: 6.25 mg/kg/injection, schedule: Q04DX003 (ip), vehicle: saline 101 % of control | [2] 103 % of control | [3] 101 % of control

[CH3][Sn]([CH3])([Cl])[c]1cc[c]([Sn]([CH3])([CH3])[Cl])cc1
inactive: endpoint: median survival time, dose: 0.12 mg/kg/injection, schedule: Q01DX009 (ip), vehicle: saline 100 % of control | endpoint: median survival time, dose: 0.25 mg/kg/injection, schedule: Q01DX009 (ip), vehicle: saline 101 % of control | endpoint: median survival time, dose: 0.5 mg/kg/injection, schedule: Q01DX009 (ip), vehicle: saline 105 % of control | endpoint: median survival time, dose: 1.0 mg/kg/injection, schedule: Q01DX009 (ip), vehicle: saline 101 % of control and 108 % of control | endpoint: median survival time, dose: 2.0 mg/kg/injection, schedule: Q01DX009 (ip), vehicle: saline 108 % of control and 110 % of control

O=C1c2ccccc2C(=O)N1CNCCCNCN1C(=O)c2ccccc2C1=O
inactive: [4] 98 % of control | [5] 98 % of control | [6] 96 % of control

COC(=O)N1c2ccccc2C23CCN4CCCC5(CCC12C(C(=O)O)C5)C43 (stereo not drawn)
inactive: endpoint: mean survival time, dose: 75.0 mg/kg/injection, schedule: Q01DX001 (ip), vehicle: other 93 % of control | endpoint: mean survival time, dose: 150.0 mg/kg/injection, schedule: Q01DX001 (ip), vehicle: other 101 % of control | endpoint: mean survival time, dose: 300.0 mg/kg/injection, schedule: Q01DX001 (ip), vehicle: other 107 % of control

CC1Cc2c(N)cccc2C1=O (stereo not drawn)
inactive: [7] 98 % of control | [8] 87 % of control | [9] 91 % of control

O=C(Nc1cc(S(=O)(=O)O)cc2cc(S(=O)(=O)O)c(N=Nc3ccc([As](=O)(O)O)cc3)c(O)c12)c1ccc([N+](=O)[O-])cc1
inactive: endpoint: mean survival time, dose: 12.5 mg/kg/injection, schedule: Q04DX002 (ip), vehicle: saline 101 % of control | endpoint: mean survival time, dose: 25.0 mg/kg/injection, schedule: Q04DX002 (ip), vehicle: saline 94 % of control | endpoint: mean survival time, dose: 50.0 mg/kg/injection, schedule: Q04DX002 (ip), vehicle: saline 94 % of control

CS(=O)(=O)OCCN(CCOS(C)(=O)=O)c1cccc(C(F)(F)F)c1
inactive: endpoint: mean survival time, dose: 6.25 mg/kg/injection, schedule: Q01DX015 (ip), vehicle: saline 113 % of control | endpoint: mean survival time, dose: 12.5 mg/kg/injection, schedule: Q01DX015 (ip), vehicle: saline 119 % of control | endpoint: mean survival time, dose: 25.0 mg/kg/injection, schedule: Q01DX015 (ip), vehicle: saline 107 % of control | endpoint: mean survival time, dose: 50.0 mg/kg/injection, schedule: Q01DX015 (ip), vehicle: saline 98 % of control

c1ccc2c[n+]3ccccc3cc2c1
inactive: [2] 97 % of control | [3] 98 % of control

COc1ccc2c3c(ccc2c1)C1CCC(=O)C1(C)CC3 (stereo not drawn)
inactive: [4] 102 % of control | [5] 96 % of control | [6] 98 % of control

C(=N\N=C\C1CCc2ccccc21)/c1ccco1 (stereo not drawn)
inactive: [4] 88 % of control | [10] 94 % of control | [11] 93 % of control | [6] 88 % of control | [12] 87 % of control

CC1CCC(C(C)C2C(O)CC3C4CC=C5CC(O)CCC5(C)C4CCC32C)NC1 (stereo not drawn)
inactive: endpoint: mean survival time, dose: 50.0 mg/kg/injection, schedule: Q04DX003 (ip), vehicle: saline with Tween-80 93 % of control | [10] 90 % of control and 96 % of control | [11] 87 % of control and 98 % of control

CNC(=O)NCC1OC(n2cnc3c(=O)[nH]c(N)nc32)C(O)C1O (stereo not drawn)
inactive: endpoint: mean survival time, dose: 100.0 mg/kg/injection, schedule: Q01DX001 (ip), vehicle: saline 103 % of control | endpoint: mean survival time, dose: 200.0 mg/kg/injection, schedule: Q01DX001 (ip), vehicle: saline 97 % of control | endpoint: mean survival time, dose: 400.0 mg/kg/injection, schedule: Q01DX001 (ip), vehicle: saline 103 % of control

CCC(C)(C)N
inactive: endpoint: mean survival time, dose: 100.0 mg/kg/injection, schedule: Q04DX003 (ip), vehicle: saline 100 % of control | endpoint: mean survival time, dose: 200.0 mg/kg/injection, schedule: Q04DX003 (ip), vehicle: saline 106 % of control | endpoint: mean survival time, dose: 400.0 mg/kg/injection, schedule: Q04DX003 (ip), vehicle: saline 103 % of control

COC(=O)C1=C(N)CCc2ccccc21
inactive: [4] 91 % of control | [5] 96 % of control | [6] 96 % of control

BrC1CCCCCCC1
inactive: [10] 92 % of control | [11] 98 % of control | [12] 95 % of control

O=S(=O)(NC(=S)Nc1ccc(Cl)cc1)c1ccccc1
inactive: [4] 93 % of control | [5] 109 % of control

CC1CC(C)(C)N=C(C2(c3ccccc3)CCC2)O1 (stereo not drawn)
inactive: [7] 101 % of control | [1] 101 % of control | [8] 111 % of control | endpoint: mean survival time, dose: 200.0 mg/kg/injection, schedule: Q04DX002 (ip), vehicle: saline with Tween-80 93 % of control | [9] 98 % of control | endpoint: mean survival time, dose: 400.0 mg/kg/injection, schedule: Q04DX002 (ip), vehicle: saline with Tween-80 93 % of control

CC(C)(C)OC(=O)NC(C(=O)O)C1=CCC=CC1 (stereo not drawn)
inactive: endpoint: mean survival time, dose: 25.0 mg/kg/injection, schedule: Q01DX009 (ip), vehicle: other 100 % of control | endpoint: mean survival time, dose: 50.0 mg/kg/injection, schedule: Q01DX009 (ip), vehicle: other 96 % of control | endpoint: mean survival time, dose: 50.0 mg/kg/injection, schedule: Q04DX002 (ip), vehicle: other 101 % of control | endpoint: mean survival time, dose: 50.0 mg/kg/injection, schedule: Q04DX003 (ip), vehicle: other 103 % of control | endpoint: mean survival time, dose: 100.0 mg/kg/injection, schedule: Q01DX001 (ip), vehicle: other 106 % of control | endpoint: mean survival time, dose: 100.0 mg/kg/injection, schedule: Q01DX009 (ip), vehicle: other 91 % of control | endpoint: mean survival time, dose: 100.0 mg/kg/injection, schedule: Q04DX002 (ip), vehicle: other 101 % of control | endpoint: mean survival time, dose: 100.0 mg/kg/injection, schedule: Q04DX003 (ip), vehicle: other 106 % of control | endpoint: mean survival time, dose: 200.0 mg/kg/injection, schedule: Q01DX001 (ip), vehicle: other 99 % of control | endpoint: mean survival time, dose: 200.0 mg/kg/injection, schedule: Q01DX009 (ip), vehicle: other 91 % of control | endpoint: mean survival time, dose: 200.0 mg/kg/injection, schedule: Q04DX002 (ip), vehicle: other 94 % of control | endpoint: mean survival time, dose: 200.0 mg/kg/injection, schedule: Q04DX003 (ip), vehicle: other 97 % of control | endpoint: mean survival time, dose: 400.0 mg/kg/injection, schedule: Q01DX001 (ip), vehicle: other 99 % of control | endpoint: mean survival time, dose: 400.0 mg/kg/injection, schedule: Q04DX002 (ip), vehicle: other 101 % of control | endpoint: mean survival time, dose: 400.0 mg/kg/injection, schedule: Q04DX003 (ip), vehicle: other 97 % of control | endpoint: mean survival time, dose: 600.0 mg/kg/injection, schedule: Q01DX001 (ip), vehicle: other 96 % of control

Cc1nc(N)[nH]c(=O)c1CCCNCc1ccncc1
inactive: [7] 87 % of control | [8] 91 % of control | [9] 90 % of control
